Test results: paper PMC11405271, “Atypical cellular responses mediated by intracellular constitutive active TrkB (NTRK2) kinase domains and a solely intracellular NTRK2-fusion oncogene” (Cancer Gene Therapy, 2024)

Target: T1, TrkB-wt (Mus musculus, UniProt P15209)
T1 construct: gene Ntrk2; full-length receptor with kinase domain, pcDNA3, transiently overexpressed in HEK293; 130 kDa mature and 90 kDa underglycosylated
Assay: Western blot and immunofluorescence of pTrk-kin, transfected HEK293
Type: cell-based
Conditions: no neurotrophin, constitutive kinase activity; concentrations only in figure

T1 sequence (P15209 32-821): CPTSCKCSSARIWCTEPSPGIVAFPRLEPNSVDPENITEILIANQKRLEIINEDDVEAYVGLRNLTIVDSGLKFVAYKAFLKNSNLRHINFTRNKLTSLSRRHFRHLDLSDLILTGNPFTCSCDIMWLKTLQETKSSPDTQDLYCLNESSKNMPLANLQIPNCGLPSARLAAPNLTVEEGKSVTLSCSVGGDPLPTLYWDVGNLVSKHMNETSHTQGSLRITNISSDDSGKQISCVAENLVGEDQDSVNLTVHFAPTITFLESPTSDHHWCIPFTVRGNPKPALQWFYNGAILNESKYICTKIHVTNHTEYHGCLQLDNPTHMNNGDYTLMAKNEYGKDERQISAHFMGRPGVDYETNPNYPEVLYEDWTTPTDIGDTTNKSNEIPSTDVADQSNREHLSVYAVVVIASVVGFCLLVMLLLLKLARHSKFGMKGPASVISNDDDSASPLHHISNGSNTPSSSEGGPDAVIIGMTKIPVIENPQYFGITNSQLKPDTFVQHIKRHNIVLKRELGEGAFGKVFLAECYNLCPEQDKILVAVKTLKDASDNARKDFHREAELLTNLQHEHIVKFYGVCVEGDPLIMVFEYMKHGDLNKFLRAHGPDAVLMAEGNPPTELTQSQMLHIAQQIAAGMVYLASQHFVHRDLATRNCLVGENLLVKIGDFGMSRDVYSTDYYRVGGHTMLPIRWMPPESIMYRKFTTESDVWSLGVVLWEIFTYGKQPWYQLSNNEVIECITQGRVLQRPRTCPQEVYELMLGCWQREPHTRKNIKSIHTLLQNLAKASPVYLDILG

SMILES	Western blot and immunofluorescence of pTrk-kin, transfected HEK293
CN1CCN(c2ccc(C(=O)Nc3n[nH]c4ccc(Cc5cc(F)cc(F)c5)cc34)c(NC3CCOCC3)c2)CC1 [Entrectinib]	TrkB self-activity is reduced upon inhibitor treatment
O=C(Nc1cnn2ccc(N3CCC[C@@H]3c3cc(F)ccc3F)nc12)N1CC[C@H](O)C1 [LOXO-101]	TrkB self-activity is reduced upon inhibitor treatment
